Test results reported in patent publication US20210205292A1, “INHIBITORS OF CREB-CBP INTERACTION FOR TREATMENT OF LEUKEMIA” (The Board of Trustees of the Leland Stanford Junior …, priority 2016, published 2021).

Assays:
[1] = test system: normal bone marrow progenitor cells; test: Methylcellulose hematopoietic cell colony assay; format: cell-based, human; settings: up to 10 mM, colonies counted on day 14
Protocol: Human bone marrow cells from non-leukemic patients were resuspended in a volume of 0.3 mL of IMDM with 20% FBS at 5×10^5 cells/mL and mixed with varying concentrations of the Compound A (10 pM to 10 mM in 0.1% DMSO) or 0.1% DMSO control. This was added to 3 mL of methylcellulose-containing growth factors IL-3, IL-6, G-CSF, erythropoietin, SCF (Methocult GF-H4434; Stem Cell Technology) and plated. The colonies were observed daily and counted on day 14.

[2] = test system: primary AML patient bone marrow samples; test: Primary AML patient bone marrow samples, Trypan blue exclusion assay; format: cell-based, human; settings: 2 μM, 72 hours
Protocol: AML cell lines were purchased from ATCC and maintained with IMDM (Gibco) supplemented with 10% FBS (Fisher Scientific) and 1% PSG (Gibco). Cells were plated at a density of 2-4×10^5 cells/ml, and treated with various doses of Compound A in 0.1% DMSO or 0.1% DMSO alone. Cell counts and viability were determined using the Vi-CELL XR Cell Viability Analyzer (Beckman Coulter). HL-60 and KG-1 cells overexpressing CREB or CBP were generated using lentiviral gene delivery with subsequent puromycin selection and FACs sorting for GFP. CREB knockdown was achieved by infecting cells with a lentivirus expressing the shRNA sequence 5′-[…]-3′ (SEQ ID NO:). For chemotherapy combination experiments, combination index values were calculated using median effects analysis on Calcusyn software. Human patient bone marrow samples were cultured in DMEM plus 20% FBS and 1×PSG, supplemented with recombinant GM-CSF (20 ng/ml), G-CSF (20 ng/ml), SCF (50 ng/ml), IL-3 (20 ng/ml), and IL-6 (10 ng/ml). Cells were plated at a concentration of 1×10^5 cells/ml in a 12-well plate. Vehicle (0.1% DMSO) or Compound A (2 μM) was added for up to 72 hours. All samples contained >85% AML blasts and were not sorted prior to performing experiments. […] Single cell suspensions of bone marrow culture were subsequently analyzed on a D×P10 flow cytometer (Cytek). […]

Caspase-3 = Caspase-3 protease activity (ApoTarget kit); format: cell-based; design: unit of the concentration uncertain
Description: The ApoTarget Caspase-3 Protease Activity Kit (Invitrogen) was used per manufacturer's instructions.
The balance between pro- and anti-apoptotic protein expression contributes to cell fate decisions. CREB regulates the expression of several anti-apoptotic proteins, including Bcl-2, Bcl-XL and Mcl-1. Bcl-2 expression in particular is known to mediate resistance to chemotherapy and influence clinical outcome in a number of cancer types, including AML. The ability of Compound A to cause apoptosis by disrupting the CREB-driven expression of these anti-apoptotic proteins was examined. In HL-60 cells treated with Compound A, apoptosis is induced in a dose- and time-dependent manner. […] Compound A elicited apoptosis through the intrinsic apoptosis pathway, with activation of Caspase-3 (FIG. 5, panel B) and detectable Caspase-9 cleavage (data not shown). Relative caspase-3 activity at 24 hours: 5.4±0.8 for etoposide, 1±0.78, 0.93±0.71, 1.02±0.67, 2.9±0.58, 5.1±0.63, 4.1±0.71 for 0, 1, 1.5, 2, 2.5 and 3 mM Compound A, respectively. Activity at 72 hours: 1.2±0.05 for etoposide, 1.0±0.02, 1.9±0.03, 3.7±0.04, 4.4±0.05, 2.1±0.03, 1.9±0.02 for 0, 1, 1.5, 2, 2.5 and 3 mM Compound A, respectively. The transcription of Bcl-2 decreased following 72 hours of 2 mM Compound A treatment (FIG. 5, panel C), and this was verified by Western blot analysis (FIG. 5, panel D). […] To confirm whether loss of Bcl-2 function alone is sufficient to induce apoptosis in AML cells, HL-60 cells were treated with the validated Bcl-2 inhibitor ABT-737 (50 to 200 nM). […] Bcl-2 levels are influenced by CREB expression in these AML cell lines (FIG. 11, panel C).

N#Cc1ccc(NC(=O)c2cc3ccccc3cc2O)cc1 [Compound A, N-(4-cyanophenyl)-3-hydroxy-2-naphthamide]
colony formation [1]: no significant decrease in colony formation
decreased viable cell count [2]: a range of responsiveness
relative caspase-3 activity (Caspase-3; 24 hours, 1 (unit uncertain)): 0.93±0.71
relative caspase-3 activity (Caspase-3; 24 hours, 1.5 (unit uncertain)): 1.02±0.67
relative caspase-3 activity (Caspase-3; 24 hours, 2 (unit uncertain)): 2.9±0.58
relative caspase-3 activity (Caspase-3; 24 hours, 2.5 (unit uncertain)): 5.1±0.63
relative caspase-3 activity (Caspase-3; 24 hours, 3 (unit uncertain)): 4.1±0.71
relative caspase-3 activity (Caspase-3; 72 hours, 1 (unit uncertain)): 1.9±0.03
relative caspase-3 activity (Caspase-3; 72 hours, 1.5 (unit uncertain)): 3.7±0.04
relative caspase-3 activity (Caspase-3; 72 hours, 2 (unit uncertain)): 4.4±0.05
relative caspase-3 activity (Caspase-3; 72 hours, 2.5 (unit uncertain)): 2.1±0.03
relative caspase-3 activity (Caspase-3; 72 hours, 3 (unit uncertain)): 1.9±0.02
